# Test results from the NIST ThermoML archive (doi:10.1007/s10765-009-0581-7).
# ± gives the expanded uncertainty stated by the source.
# Tests used:
# [1] = for surface tension liquid-gas: Ring tensiometer; for mass density: 101 kPa, Liquid
# [2] = xn = mol fraction of the nth substance listed; conditions: x2 = 0; for surface tension liquid-gas: Ring tensiometer; for mass density: 101 kPa, Liquid
surface tension liquid-gas ([1]; 278.15 K),mass density ([1]; 278.15 K),surface tension liquid-gas ([1]; 283.15 K),mass density ([1]; 283.15 K),surface tension liquid-gas ([1]; 288.15 K),mass density ([1]; 288.15 K),surface tension liquid-gas ([1]; 293.15 K),mass density ([1]; 293.15 K),surface tension liquid-gas ([1]; 298.15 K),mass density ([1]; 298.15 K),surface tension liquid-gas ([1]; 303.15 K),mass density ([1]; 303.15 K),surface tension liquid-gas ([1]; 308.15 K),mass density ([1]; 308.15 K),surface tension liquid-gas ([1]; 313.15 K),mass density ([1]; 313.15 K),also measured,Structure (SMILES)
30.5 ± 0.5 mN/m,793.3 ± 1.9 kg/m3,30.1 ± 0.5 mN/m,788.8 ± 1.9 kg/m3,29.7 ± 0.5 mN/m,784.3 ± 2 kg/m3,29.3 ± 0.5 mN/m,778.3 ± 2 kg/m3,28.9 ± 0.5 mN/m,776.75 ± 2 kg/m3,28.5 ± 0.4 mN/m,771.5 ± 2 kg/m3,28.1 ± 0.4 mN/m,766.3 ± 2.1 kg/m3,27.7 ± 0.4 mN/m,761 ± 2.1 kg/m3,–,CC#N [acetonitrile]
–,–,–,–,–,–,–,–,–,–,–,–,–,–,–,–,surface tension liquid-gas ([2]; 278.15 K): 24.9 ± 0.4 mN/m; mass density ([2]; 278.15 K): 816.3 ± 1.8 kg/m3; surface tension liquid-gas ([2]; 283.15 K): 24.5 ± 0.4 mN/m; mass density ([2]; 283.15 K): 812.4 ± 1.8 kg/m3; surface tension liquid-gas ([2]; 288.15 K): 24.1 ± 0.4 mN/m; mass density ([2]; 288.15 K): 808.6 ± 1.8 kg/m3; surface tension liquid-gas ([2]; 293.15 K): 23.7 ± 0.4 mN/m; mass density ([2]; 293.15 K): 803.61 ± 1.9 kg/m3; surface tension liquid-gas ([2]; 298.15 K): 23.3 ± 0.4 mN/m; mass density ([2]; 298.15 K): 799.58 ± 1.9 kg/m3; surface tension liquid-gas ([2]; 303.15 K): 22.9 ± 0.4 mN/m; mass density ([2]; 303.15 K): 795.48 ± 1.9 kg/m3; surface tension liquid-gas ([2]; 308.15 K): 22.5 ± 0.4 mN/m; mass density ([2]; 308.15 K): 792.8 ± 1.9 kg/m3; surface tension liquid-gas ([2]; 313.15 K): 22.2 ± 0.4 mN/m; mass density ([2]; 313.15 K): 787.02 ± 1.9 kg/m3,CCCO [propan-1-ol] + CC#N
24.9 ± 0.4 mN/m,816.3 ± 1.8 kg/m3,24.5 ± 0.4 mN/m,812.4 ± 1.8 kg/m3,24.1 ± 0.4 mN/m,808.6 ± 1.8 kg/m3,23.7 ± 0.4 mN/m,803.61 ± 1.9 kg/m3,23.3 ± 0.4 mN/m,799.58 ± 1.9 kg/m3,22.9 ± 0.4 mN/m,795.48 ± 1.9 kg/m3,22.5 ± 0.4 mN/m,792.8 ± 1.9 kg/m3,22.2 ± 0.4 mN/m,787.02 ± 1.9 kg/m3,–,CCCO [propan-1-ol]
